Data taken from ChEMBL document CHEMBL5303573, “Mapping human microbiome drug metabolism by gut bacteria and their genes” (Nature, 2019).

Experiments:
Format in all cases: ADME
Set-up in all cases: dose 2 uM
Conditions in all cases: 2 µM
[1] = biological target: T1, 3-oxo-5-alpha-steroid 4-dehydrogenase (Bacteroides thetaiotaomicron, UniProt Q8A618); test: (§1) The drug is tested on Bacteroides thetaiotaomicron strain: VPI-5482 for biotransformation. The drug concentrations were measured before and after a 12-h incubation by liquid-chromatography-coupled mass spectrometry (LC–MS)
T1 sequence (Q8A618 whole entry): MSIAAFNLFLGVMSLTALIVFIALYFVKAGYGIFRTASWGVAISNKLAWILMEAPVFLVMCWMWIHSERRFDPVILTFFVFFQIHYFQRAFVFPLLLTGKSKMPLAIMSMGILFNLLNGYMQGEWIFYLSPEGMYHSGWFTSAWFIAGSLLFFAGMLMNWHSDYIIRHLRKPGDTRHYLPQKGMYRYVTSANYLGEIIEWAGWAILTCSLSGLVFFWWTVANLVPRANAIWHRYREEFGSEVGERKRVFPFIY

[2] = biological target: T2, Acetyl esterase (Acetylxylosidase) (Bacteroides thetaiotaomicron, UniProt Q8ABF8); test: as §1
T2 sequence (Q8ABF8 whole entry): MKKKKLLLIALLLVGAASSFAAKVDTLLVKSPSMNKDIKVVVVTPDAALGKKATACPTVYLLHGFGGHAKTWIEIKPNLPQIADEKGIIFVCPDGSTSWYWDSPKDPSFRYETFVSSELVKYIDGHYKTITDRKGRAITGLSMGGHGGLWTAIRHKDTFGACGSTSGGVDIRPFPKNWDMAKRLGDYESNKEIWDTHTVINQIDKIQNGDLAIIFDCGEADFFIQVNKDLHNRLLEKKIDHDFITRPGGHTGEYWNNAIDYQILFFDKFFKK

[3] = biological target: T3, Nitroreductase-like protein (Bacteroides thetaiotaomicron, UniProt Q8AB93); test: as §1
T3 sequence (Q8AB93 whole entry): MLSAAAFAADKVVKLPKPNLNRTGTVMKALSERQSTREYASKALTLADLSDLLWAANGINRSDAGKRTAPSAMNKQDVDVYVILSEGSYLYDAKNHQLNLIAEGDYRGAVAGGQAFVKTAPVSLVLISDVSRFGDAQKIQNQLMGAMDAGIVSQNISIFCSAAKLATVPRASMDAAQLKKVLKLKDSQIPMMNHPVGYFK

Regulatory protein = biological target: T4, Regulatory protein (Bacteroides thetaiotaomicron, UniProt Q8A576); test: as §1
T4 sequence (Q8A576 whole entry): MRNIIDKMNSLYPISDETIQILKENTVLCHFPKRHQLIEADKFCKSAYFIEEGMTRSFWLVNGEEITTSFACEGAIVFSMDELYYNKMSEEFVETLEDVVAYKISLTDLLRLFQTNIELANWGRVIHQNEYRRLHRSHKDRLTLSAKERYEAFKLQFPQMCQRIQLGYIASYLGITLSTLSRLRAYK

Lipoprotein = biological target: T5, Lipoprotein (Bacteroides thetaiotaomicron, UniProt Q8A343); test: as §1
T5 sequence (Q8A343 whole entry): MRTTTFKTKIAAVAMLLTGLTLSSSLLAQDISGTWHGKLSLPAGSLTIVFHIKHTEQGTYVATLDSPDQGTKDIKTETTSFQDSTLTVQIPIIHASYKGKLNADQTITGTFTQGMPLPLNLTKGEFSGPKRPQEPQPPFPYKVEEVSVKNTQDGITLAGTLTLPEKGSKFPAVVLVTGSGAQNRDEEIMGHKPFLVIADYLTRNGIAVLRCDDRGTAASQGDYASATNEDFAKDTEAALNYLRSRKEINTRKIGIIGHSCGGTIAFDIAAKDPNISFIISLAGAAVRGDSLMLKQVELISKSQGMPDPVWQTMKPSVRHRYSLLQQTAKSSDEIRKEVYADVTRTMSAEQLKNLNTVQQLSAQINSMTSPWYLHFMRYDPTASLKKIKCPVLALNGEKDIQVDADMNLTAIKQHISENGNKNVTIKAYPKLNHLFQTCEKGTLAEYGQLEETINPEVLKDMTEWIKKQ

[4] = biological target: T6, Nitroreductase domain-containing protein (Phocaeicola dorei, UniProt B6W3P3); test: (§2) The drug is tested on Bacteroides dorei strain: DSM17855 for biotransformation. The drug concentrations were measured before and after a 12-h incubation by liquid-chromatography-coupled mass spectrometry (LC–MS)
T6 sequence (B6W3P3 whole entry): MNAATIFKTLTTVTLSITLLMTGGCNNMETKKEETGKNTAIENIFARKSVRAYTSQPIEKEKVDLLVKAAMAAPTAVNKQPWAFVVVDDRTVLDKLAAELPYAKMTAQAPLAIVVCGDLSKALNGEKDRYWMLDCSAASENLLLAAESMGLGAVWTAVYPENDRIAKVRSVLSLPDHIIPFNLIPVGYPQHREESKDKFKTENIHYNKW

[5] = biological target: T7, Steroid 5-alpha reductase C-terminal domain-containing protein (Phocaeicola dorei, UniProt B6W0N3); test: as §2
T7 sequence (B6W0N3 whole entry): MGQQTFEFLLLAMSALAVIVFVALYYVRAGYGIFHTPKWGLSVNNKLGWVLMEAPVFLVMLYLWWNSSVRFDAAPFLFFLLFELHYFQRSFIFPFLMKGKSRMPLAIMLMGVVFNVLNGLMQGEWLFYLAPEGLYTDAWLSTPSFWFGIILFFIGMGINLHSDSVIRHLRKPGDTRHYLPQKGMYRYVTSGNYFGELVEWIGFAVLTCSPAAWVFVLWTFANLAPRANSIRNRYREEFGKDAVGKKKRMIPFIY

[6] = biological target: T8, Acyltransferase 3 domain-containing protein (Phocaeicola dorei, UniProt B6W2J3); test: as §2
T8 sequence (B6W2J3 whole entry): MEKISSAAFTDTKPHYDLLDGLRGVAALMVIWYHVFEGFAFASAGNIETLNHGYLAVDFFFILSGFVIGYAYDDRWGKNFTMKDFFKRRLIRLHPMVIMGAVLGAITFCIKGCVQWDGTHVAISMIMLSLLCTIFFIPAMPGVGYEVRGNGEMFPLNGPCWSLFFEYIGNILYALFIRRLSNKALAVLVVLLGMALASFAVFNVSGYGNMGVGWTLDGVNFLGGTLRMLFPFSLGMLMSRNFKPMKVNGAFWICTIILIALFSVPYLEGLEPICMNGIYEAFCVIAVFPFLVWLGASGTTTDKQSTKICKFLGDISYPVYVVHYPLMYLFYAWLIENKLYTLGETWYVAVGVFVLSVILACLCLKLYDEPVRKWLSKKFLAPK

Esterase = biological target: T9, Esterase (Phocaeicola dorei, UniProt B6W2J6); test: as §2
T9 sequence (B6W2J6 whole entry): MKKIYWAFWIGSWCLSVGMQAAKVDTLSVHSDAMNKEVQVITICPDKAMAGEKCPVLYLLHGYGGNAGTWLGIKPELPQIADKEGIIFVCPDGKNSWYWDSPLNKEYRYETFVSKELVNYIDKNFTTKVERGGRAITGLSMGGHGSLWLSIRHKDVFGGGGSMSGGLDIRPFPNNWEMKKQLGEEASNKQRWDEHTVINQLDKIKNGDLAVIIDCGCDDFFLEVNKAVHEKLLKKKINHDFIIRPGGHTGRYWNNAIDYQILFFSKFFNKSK

Structure (SMILES)	Bacterial Biotransformation [1]	Bacterial Biotransformation [2]	Bacterial Biotransformation [3]	Bacterial Biotransformation (Regulatory protein)	Bacterial Biotransformation (Lipoprotein)	Bacterial Biotransformation [4]	Bacterial Biotransformation [5]	Bacterial Biotransformation [6]	Bacterial Biotransformation (Esterase)
C#C[C@]1(O)CC[C@H]2[C@@H]3CCC4=CC(=O)CC[C@@H]4[C@H]3CC[C@@]21CC [LEVONORGESTREL]	Compound metabolized	Compound NOT metabolized	Compound NOT metabolized	Compound NOT metabolized	Compound NOT metabolized	Compound NOT metabolized	Compound metabolized	Compound NOT metabolized	Compound NOT metabolized
C#C[C@]1(OC(C)=O)CC[C@H]2[C@@H]3CCC4=CC(=O)CC[C@@H]4[C@H]3CC[C@@]21C [NORETHINDRONE ACETATE]	Compound metabolized	Compound NOT metabolized	Compound NOT metabolized	Compound NOT metabolized	Compound NOT metabolized	Compound NOT metabolized	Compound metabolized	Compound NOT metabolized	Compound NOT metabolized
N#Cc1ccc2c(c1)N(CCCN1CCC(O)CC1)c1ccccc1S2 [PERICIAZINE]	Compound NOT metabolized	Compound NOT metabolized	Compound NOT metabolized	Compound NOT metabolized	Compound NOT metabolized	Compound NOT metabolized	Compound NOT metabolized	Compound metabolized	Compound NOT metabolized

Continued, values first:

Bacterial Biotransformation [1]	Bacterial Biotransformation [2]	Bacterial Biotransformation [3]	Bacterial Biotransformation (Regulatory protein)	Bacterial Biotransformation (Lipoprotein)	Bacterial Biotransformation [4]	Bacterial Biotransformation [5]	Bacterial Biotransformation [6]	Bacterial Biotransformation (Esterase)	Structure (SMILES)
Compound NOT metabolized	Compound NOT metabolized	Compound NOT metabolized	Compound NOT metabolized	Compound NOT metabolized	Compound NOT metabolized	Compound NOT metabolized	Compound NOT metabolized	Compound NOT metabolized	CC(=O)OCC(=O)[C@@]1(OC(C)=O)[C@@H](C)C[C@H]2[C@@H]3C[C@H](F)C4=CC(=O)C=C[C@]4(C)[C@@]3(F)[C@@H](O)C[C@@]21C [DIFLORASONE DIACETATE]
Compound NOT metabolized	Compound NOT metabolized	Compound NOT metabolized	Compound NOT metabolized	Compound NOT metabolized	Compound NOT metabolized	Compound NOT metabolized	Compound NOT metabolized	Compound NOT metabolized	COc1ccc([C@@H]2Sc3ccccc3N(CCN(C)C)C(=O)[C@@H]2OC(C)=O)cc1 [DILTIAZEM]
Compound NOT metabolized	Compound metabolized	Compound NOT metabolized	Compound NOT metabolized	Compound NOT metabolized	Compound NOT metabolized	Compound NOT metabolized	Compound NOT metabolized	Compound metabolized	CC(=O)OCC(CCn1cnc2cnc(N)nc21)COC(C)=O [FAMCICLOVIR]
